Experimental data reported in patent publication US11884675B2, “Heterocyclic compounds as triggering receptor expressed on myeloid cells 2 agonists and methods of use” (AMGEN INC., priority 2020, dated 2024).

target: hTREM2 (Homo sapiens, UniProt Q9NZC2); assay: TREM2 agonist potency by Syk phosphorylation (AlphaLisa) in HEK293T-hTREM2 cells, used for Examples 306-429; assay type: cell-based; parameters: expressed in transfected cells; host or cells: HEK293T (HEK293T-hTREM2 cells); settings: HEK293 Cells
Sequence (Q9NZC2 19-230): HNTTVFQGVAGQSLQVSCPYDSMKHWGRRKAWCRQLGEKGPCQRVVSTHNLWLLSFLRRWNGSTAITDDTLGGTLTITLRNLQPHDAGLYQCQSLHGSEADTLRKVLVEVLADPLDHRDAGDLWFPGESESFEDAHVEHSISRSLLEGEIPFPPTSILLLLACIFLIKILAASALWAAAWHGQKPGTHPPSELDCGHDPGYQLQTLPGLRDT
Sequence (O43914 22-113 partner): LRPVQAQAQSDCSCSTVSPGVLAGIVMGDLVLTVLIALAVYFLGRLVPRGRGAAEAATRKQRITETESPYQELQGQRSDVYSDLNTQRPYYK
Protocol: In vitro Measurement of Triggering Receptor Expressed on Myeloid Cells 2 activity using cellular phosphorylation of Spleen Tyrosine Kinase (“Syk”) Assays used for Examples 306-429
Measurement of TREM2 agonist potency was done using a HEK cell line expressing human TREM2 and DAP12 (HEK293T-hTREM2 cells). Binding of small molecules to, and activation of, TREM2 increases the phosphorylation of Syk. The resultant levels of Syk phosphorylation were measured using a commercial AlphaLisa reagent kit. To perform the assay, HEK-hTREM2 cells were plated at 14,000 cells per well in a 384 well plate, in 25 μL, of complete growth media and incubated at 37° C., 5% CO2 for 20-24 hours. Prior to the assay, test compounds were diluted in the 384 well plates in assay buffer and allowed to equilibrate for 30 minutes. Growth media was removed from cell plates by inversion on blotting paper, and 25 μL of test compounds in assay buffer was added to cells. Cells were incubated for 45 minutes at room temperature. After 45 minutes, assay buffer was removed and 10 μL of lysis buffer was added. Plates were shaken for 20 minutes at 350 RPM at room temperature. After complete lysis, AlphaLisa reagents were added to the lysate, and fluourescence intensity was measured using a Perkin Elmer Envision plate reader. Intensities were used to generate a standard curve, and % activation was calculated. Curve fitting was performed using Prism v9 software, log(agonist) vs response-variable slope (four parameters), and EC50s were calculated from the curve fit.
The results presented in Table 20 have been generated with the in vitro assay described above for Examples 306-429. This assay may be used to test any of the compounds described herein to assess and characterize a compound's ability to act as an agonist of TREM2.

**Q.** How did the EC50 turn out when `Cc1cc([C@@H]2C[C@H](c3nc(-c4cc(F)c(Cl)c(F)c4)c4nc(C)c(C)nc4n3)CCO2)ccn1` (racemic) [Example 389, 4-(4-chloro-3,5-difluoro-phenyl)-6,7-dimethyl-2-[2-(2-methyl-4-pyridyl)tetrahydropyran-4-yl]pteridine] was run?
**A.** Its EC50 is at most 50 nM.

**Q.** With `Cc1cc(C2CC(c3cc4nc(C)c(C)nc4c([C@]45C[C@](C(F)(F)F)(C4)C5)n3)CCO2)ccn1` (mixture of isomers) [Example 319, 2,3-dimethyl-7-(2-(2-methylpyridin-4-yl)tetrahydro-2H-pyran-4-yl)-5-(3-(trifluoromethyl)bicyclo[1.1.1]pentan-1-yl)pyrido[3,4-b]pyrazine] as the compound, how does the EC50 read?
**A.** The EC50 was at most 50 nM.

**Q.** For `Cc1cnc2c(C34CC(C(F)(F)F)(C3)C4)nc(N3C[C@H](C)O[C@@H](c4cnn(C5CC5)c4)C3)nc2n1` (racemic) [Example 355, 2-(1-cyclopropyl-1H-pyrazol-4-yl)-6-methyl-4-(7-methyl-4-(3-(trifluoromethyl)bicyclo[1.1.1]pentan-1-yl)pteridin-2-yl)morpholine], which EC50 is on record?
**A.** The EC50 was 50 to 500 nM.

**Q.** Which EC50 does the source give for `Cc1cnc2c(-c3ccc(C(F)(F)F)nc3)nc(N3CCOC(c4cnn(C5CC5)c4)C3)cc2n1` (stereo not drawn) [Example 340, 2-(1-cyclopropyl-1H-pyrazol-4-yl)-4-(2-methyl-5-(6-(trifluoromethyl)pyridin-3-yl)pyrido[3,4-b]pyrazin-7-yl)morpholine] here?
**A.** The EC50 was 50 to 500 nM.

**Q.** How did the EC50 turn out when `Cc1cc([C@@H]2C[C@H](c3nc(-c4ccc(Cl)c(F)c4F)c4nc(C)c(C)nc4n3)CCO2)ccn1` [Example 396, 4-(4-chloro-2,3-difluorophenyl)-6,7-dimethyl-2-((2S,4R)-2-(2-methylpyridin-4-yl)tetrahydro-2H-pyran-4-yl)pteridine] was run?
**A.** The EC50 was 50 to 500 nM.

**Q.** Which EC50 does the source give for `Cc1cnc2c(C34CC(C(F)(F)F)(C3)C4)nc([C@H]3CCO[C@@H](c4cnn(C5CC5)c4)C3)cc2n1` (racemic) [Example 386, 2-methyl-7-[2-(1-cyclopropylpyrazol-4-yl)tetrahydropyran-4-yl]-5-[3-(trifluoromethyl)-1-bicyclo[1.1.1]pentanyl]pyrido[3,4-b]pyrazine] here?
**A.** The EC50 was at most 50 nM.

**Q.** Which EC50 does the source give for `Cc1cnc2c(C34CC(C(F)(F)F)(C3)C4)nc(C3CCOC(c4cnn(C5CC5)c4)C3)nc2n1` (stereo not drawn) [Example 360, 2-(2-(1-cyclopropyl-1H-pyrazol-4-yl)tetrahydro-2H-pyran-4-yl)-7-methyl-4-(3-(trifluoromethyl)bicyclo[1.1.1]pentan-1-yl)pteridine] here?
**A.** Its EC50 is at most 50 nM.

**Q.** `Cc1ccc2c(-c3ccc(F)cc3F)nc([C@H]3C[C@@H](C)O[C@@H](c4cnn(C5CC5)c4)C3)nc2n1` [Example 416, 2-((2R,4S,6R)-2-(1-cyclopropyl-1H-pyrazol-4-yl)-6-methyltetrahydro-2H-pyran-4-yl)-4-(2,4-difluorophenyl)-7-methylpyrido[2,3-d]pyrimidine] was tested. Which EC50 did it give?
**A.** Its EC50 is 50 to 500 nM.

**Q.** `Cc1nc2nc(N3C[C@H](C)O[C@@H](c4cnn(C5CC5)c4)C3)nc(-c3ccc(Cl)cc3F)c2nc1C` (racemic) [Example 372, 4-(4-(4-chloro-2-fluorophenyl)-6,7-dimethylpteridin-2-yl)-2-(1-cyclopropyl-1H-pyrazol-4-yl)-6-methylmorpholine] was tested. Which EC50 did it give?
**A.** Its EC50 is at most 50 nM.

**Q.** Which EC50 does the source give for `Cc1nc2cc(N3C[C@@H](c4cnn(C5CC5)c4)O[C@@H](C)C3)nc(-c3ccc(F)cc3F)c2nc1C` [Example 398, (2R,6S)-2-(1-cyclopropyl-1H-pyrazol-4-yl)-4-(5-(2,4-difluorophenyl)-2,3-dimethylpyrido[3,4-b]pyrazin-7-yl)-6-methylmorpholine] here?
**A.** The EC50 was at most 50 nM.

**Q.** With `Cc1cc(C2CN(c3nc(-c4ccc(Cl)cc4C(F)(F)F)c4nc(C)c(C)nc4n3)CCO2)ccn1` (stereo not drawn) [Example 343, 4-(4-(4-chloro-2-(trifluoromethyl)phenyl)-6,7-dimethylpteridin-2-yl)-2-(2-methylpyridin-4-yl)morpholine] as the compound, how does the EC50 read?
**A.** Its EC50 is 50 to 500 nM.

**Q.** Which EC50 does the source give for `Cc1cnc2c(-c3ccc(F)cc3F)nc(N3C[C@@H](C)O[C@@H](c4cnn(C5CC5)c4)C3)nc2n1` (racemic) [Example 371, 2-(1-cyclopropyl-1H-pyrazol-4-yl)-4-(4-(2,4-difluorophenyl)-7-methylpteridin-2-yl)-6-methylmorpholine] here?
**A.** The EC50 was at most 50 nM.

**Q.** For `Cc1nc2cc(N3CC(C)OC(c4cnn(C5CC5)c4)C3)nc(-c3ccc(Cl)cc3F)c2nc1C` (stereo not drawn) [Example 367, 4-(5-(4-chloro-2-fluorophenyl)-2,3-dimethylpyrido[3,4-b]pyrazin-7-yl)-2-(1-cyclopropyl-1H-pyrazol-4-yl)-6-methylmorpholine], which EC50 is on record?
**A.** Its EC50 is 50 to 500 nM.

**Q.** Which EC50 does the source give for `Cc1cc(C2CN(c3cc4nc(C)c(C)cc4c(-c4ccc(C(F)(F)F)nc4)n3)CCO2)ccn1` (stereo not drawn) [Example 347, 4-(2,3-dimethyl-5-(6-(trifluoromethyl)pyridin-3-yl)-1,6-naphthyridin-7-yl)-2-(2-methylpyridin-4-yl)morpholine] here?
**A.** Its EC50 is at most 50 nM.

**Q.** How did the EC50 turn out when `Cc1nc2cc(N3CCO[C@@H](c4cnn(C5CC5)c4)C3)nc(-c3ccc(C(F)(F)F)nc3)c2nc1C` [Example 384, (2S)-2-(1-cyclopropylpyrazol-4-yl)-4-[2,3-dimethyl-5-[6-(trifluoromethyl)-3-pyridyl]pyrido[3,4-b]pyrazin-7-yl]morpholine] was run?
**A.** The EC50 was at most 50 nM.

**Q.** For `Cc1cnc2c(-c3ccc(F)cc3F)nc(N3C[C@@H](C)O[C@@H](c4cnn(C5CC5)c4)C3)cc2n1` (racemic) [Example 362, 2-(1-cyclopropyl-1H-pyrazol-4-yl)-4-(5-(2,4-difluorophenyl)-2-methylpyrido[3,4-b]pyrazin-7-yl)-6-methylmorpholine], which EC50 is on record?
**A.** Its EC50 is at most 50 nM.

**Q.** `Cc1cnc2c(-c3ccc(Cl)cc3F)nc(N3C[C@H](C)O[C@@H](c4cnn(C5CC5)c4)C3)nc2n1` (racemic) [Example 374, 4-(4-(4-chloro-2-fluorophenyl)-7-methylpteridin-2-yl)-2-(1-cyclopropyl-1H-pyrazol-4-yl)-6-methylmorpholine] was tested. Which EC50 did it give?
**A.** Its EC50 is at most 50 nM.

**Q.** How did the EC50 turn out when `Cc1cc(C2CN(c3cc4nc(C)c(C)nc4c(-c4ccc(F)cc4F)n3)CCO2)ccn1` (stereo not drawn) [Example 315, 4-(5-(2,4-difluorophenyl)-2,3-dimethylpyrido[3,4-b]pyrazin-7-yl)-2-(2-methylpyridin-4-yl)morpholine] was run?
**A.** Its EC50 is at most 50 nM.

**Q.** With `Cc1nc2nc(N3C[C@@H](c4cnn(C5CC5)c4)O[C@@H](C)C3)nc(-c3ccc(Cl)cc3F)c2nc1C` [Example 424, (2R,6S)-4-(4-(4-chloro-2-fluorophenyl)-6,7-dimethylpteridin-2-yl)-2-(1-cyclopropyl-1H-pyrazol-4-yl)-6-methylmorpholine] as the compound, how does the EC50 read?
**A.** The EC50 was at most 50 nM.

**Q.** `Cc1nc2nc(N3CC(C)OC(c4cnn(C5CC5)c4)C3)nc(C34CC(C(F)(F)F)(C3)C4)c2nc1C` (stereo not drawn) [Example 356, 2-(1-cyclopropyl-1H-pyrazol-4-yl)-4-(6,7-dimethyl-4-(3-(trifluoromethyl)bicyclo[1.1.1]pentan-1-yl)pteridin-2-yl)-6-methylmorpholine] was tested. Which EC50 did it give?
**A.** Its EC50 is at most 50 nM.

**Q.** With `Cc1cnc2c(-c3ccc(Cl)cc3F)nc(N3C[C@@H](c4cnn(C5CC5)c4)O[C@@H](C)C3)nc2n1` [Example 423, (2R,6S)-4-(4-(4-chloro-2-fluorophenyl)-7-methylpteridin-2-yl)-2-(1-cyclopropyl-1H-pyrazol-4-yl)-6-methylmorpholine] as the compound, how does the EC50 read?
**A.** The EC50 was 50 to 500 nM.

**Q.** Which EC50 does the source give for `Cc1cc(C2CN(c3cc4nc(C)c(C)cc4c(-c4ccc(Cl)cc4F)n3)CCO2)ccn1` (stereo not drawn) [Example 344, 4-(5-(4-chloro-2-fluorophenyl)-2,3-dimethyl-1,6-naphthyridin-7-yl)-2-(2-methylpyridin-4-yl)morpholine] here?
**A.** Its EC50 is at most 50 nM.

**Q.** How did the EC50 turn out when `Cc1cnc2c(-c3ccc(F)cc3F)nc([C@H]3C[C@@H](C)O[C@@H](c4cnn(C5CC5)c4)C3)cc2n1` [Example 417, 7-((2R,4S,6R)-2-(1-cyclopropyl-1H-pyrazol-4-yl)-6-methyltetrahydro-2H-pyran-4-yl)-5-(2,4-difluorophenyl)-2-methylpyrido[3,4-b]pyrazine] was run?
**A.** Its EC50 is 50 to 500 nM.

**Q.** Which EC50 does the source give for `Cc1cc([C@@H]2CN(c3nc(-c4ccc(Cl)c(F)c4F)c4nc(C)c(C)nc4n3)CCO2)ccn1` [Example 364, (R)-4-(4-(4-chloro-2,3-difluorophenyl)-6,7-dimethylpteridin-2-yl)-2-(2-methylpyridin-4-yl)morpholine] here?
**A.** The EC50 was at most 50 nM.

**Q.** With `Cc1nc2nc(N3CCOC(c4cnn(C5CC5)c4)C3)nc(-c3ccc(Cl)cc3F)c2nc1C` (stereo not drawn) [Example 381, 4-[4-(4-chloro-2-fluoro-phenyl)-6,7-dimethyl-pteridin-2-yl]-2-(1-cyclopropylpyrazol-4-yl)morpholine] as the compound, how does the EC50 read?
**A.** Its EC50 is at most 50 nM.

**Q.** `Cc1cc([C@H]2C[C@@H](c3nc(-c4ccc(Cl)cc4F)c4ccc(C)nc4n3)CCO2)ccn1` (racemic) [Example 325, 4-(4-chloro-2-fluorophenyl)-7-methyl-2-(2-(2-methylpyridin-4-yl)tetrahydro-2H-pyran-4-yl)pyrido[2,3-d]pyrimidine] was tested. Which EC50 did it give?
**A.** Its EC50 is at most 50 nM.

**Q.** `[2H]C([2H])([2H])c1nc2nc([C@H]3CCO[C@@H](c4ccnc(C)c4)C3)nc(-c3ccc(Cl)c(F)c3F)c2nc1C([2H])([2H])[2H]` (racemic) [Example 395, 4-(4-chloro-2,3-difluoro-phenyl)-2-[2-(2-methyl-4-pyridyl)tetrahydropyran-4-yl]-6,7-bis(trideuteriomethyl)pteridine] was tested. Which EC50 did it give?
**A.** The EC50 was at most 50 nM.
